Data set [1] has as its system Rat2TK- cells and C33 human cervical carcinoma cells transfected with pMN-HSVtk.
Data set [2] has as its target T1, epitope of immobilized GST-MN (Homo sapiens, UniProt Q16790).
T1 construct: expressed from pGEX-3X-MN containing the cDNA for the MN protein without the signal peptide; made in house; host or cells: bacteria (E. coli XL1-Blue)
Put plainly: Competition ELISA (peptides binding to the epitope of immobilized GST-MN). As to conditions: nonapeptides of 7 + 2 aa. How it is done: (§1) ELISA. Purified GST-MN [Zavada et al. (1993), supra] at concentration 10 ng /ml in carbonate buffer pH 9.2 was adsorbed for 3 h in Maxisorb strips (NUNC). After washing and blocking (1 h) with 0.05% Tween 20 in PBS, 50µl/well of the antibody + antigen mixtures were added. […] These mixtures were adsorbed for 1.5 h, followed by washing with Tween-PBS. Bound antibody was detected by antimouse lgG conjugate with peroxidase (SwAM-Px, SEVAC, Prague), diluted 1:1000. In the color reaction OPD (o-phenylenediamine dihydrochloride, Sigma) 1 mg/ml in 0.1 M citrate buffer pH 5.0 was used. To this H2O2 was added to final concentration 0.03%. This system is balanced so as to allow assay for antigen competing for M75 as well as for peptides binding to the epitope of immobilized GST-MN.
MN/CA IX. As an alternative to monoclonal antibodies, we set out to select oligopeptides exerting affinity to M75 epitope as well as to MN/CA IX receptor binding site from a phage display library of random heptapeptides - Ph.D.-7. Our aim was to select phages containing the desired heptapeptides by panning on immobilized peptide SEQ ID NO: 106 and subsequent elution with M75. Eluted phage was multiplied in appropriate bacteria and subjected to 4 more cycles of panning and elution. From the selected phage population, 10 plaques were picked, amplified and the heptapeptide-coding region was sequenced. Only 3 heptapeptides were represented. Those three heptapeptides, after adding alanine on both sides, are the following nonapeptides: […] [SEQ ID NO: 137]; […] [SEQ ID NO: 138]; and […] [SEQ ID NO: 139]. The last heptapeptide, synthesized again with added terminal alanines as nonapeptide […] [SEQ ID NO: 140], was identified by panning on GST-MN and eluted with acetazolamide. This last peptide has affinity to the active site of MN/CA IX carbonic anhydrase. We synthesized these peptides of 7 + 2 aa and tested them in competition ELISA and in cell adhesion inhibition. […] In all of those 4 nonapeptides, the C-terminal […] as amide.
For orientation: In an ELISA, binding on a coated surface is turned into a signal by an enzyme label.

The target of the next data set is MN/CA IX (Homo sapiens, UniProt Q16790). Put plainly: Cell adhesion assay of Example 2 (inhibition of cell attachment to MN/CA IX dots). The data set is classed as cell-based. The following applies: nonapeptides of 7 + 2 aa.
A further data set has as its system HeLa. Put plainly: Tolerance of cell cultures to acetazolamide. The following applies: sparse cultures. The format is cell-based, human.
Data set [3] in a line: Tolerance of cell cultures to acetazolamide. The format is cell-based, human. The following applies: human, hela cells; confluent cultures, 3 days; read-out: concentration tolerated without any signs of toxicity and without any effect on cell morphology.
Data set [4] can be described thus: Tolerance of cell cultures to acetazolamide. The data set is classed as cell-based, mouse. The following applies: mouse, nih3t3 cells; confluent cultures, 3 days; read-out: concentration tolerated without any signs of toxicity and without any effect on cell morphology.
The next data set has as its system NIH3T3 cells. Put plainly: Tolerance of cell cultures to acetazolamide. As to conditions: sparse cultures. The data set is classed as cell-based, mouse.
Data set [5] relates to NIH3T3 cells freshly transformed with the [pGD.MN + MLV] complex. Put plainly: Effect on morphologic transformation by MN. The format is cell-based, mouse. The following applies: 10^-5M, 4 days of incubation. How it is done: Thus, 10^-5M acetazolamide was added to NIH3T3 cells freshly transformed with the [pGD.MN + MLV] complex. After 4 days of incubation, the colonies were fixed and stained. No difference was seen between cells growing in the presence or absence of acetazolamide; both were indistinguishable from correctly transformed NIH3T3 cells. Thus, the enzymatic activity of carbonic anhydrase is not relevant for the transforming activity of MN protein.

The test system of a further data set is MAb M75. Put plainly: Competition ELISA with M75 (antigen competing for M75). The format is binding, mouse. As to conditions: for concentration causing 50% inhibition: GST-MN adsorbed, MAb 75 ascites fluid 10^-6; for reactive with the M75 MAb: test not given. As to the method: as §1
Identification of the epitope recognized by Mab M75. Preliminary mapping of M75 epitope employing partial sequences of extracellular parts of MN/CA9 cDNA expressed from bacterial vectors and tested on Western blots located it in PG region. For exact mapping, our strategy was to synthesize partially overlapping oligopeptides of 15-25 aa covering the PG domain and test them in competition ELISA with M75. According to the results, this was followed by a series of 6-12 aa oligopeptides. A major part of the PG domain consists of a 6-fold tandem repeat of 6 aa (aa 61 - 96) [SEQ ID NO: 97]; 4 repeats are identical (GEEDLP) [SEQ ID NO: 98] and 2 contain 2 aa exchanged (SEEDSP [SEQ ID NO: 141] and REEDPP [SEQ ID NO: 142]).

Read-outs that look alike come from different tables or passages of the source. Where a SMILES comes first, the peptide text is derived from it.

Regarding `Nc1nc(O)c2ncn(COC(CO)CO)c2n1` [GVC, ganciclovir], the cells killed entry in data set [1] is given as “up to 95%”.
Take `CSCC[C@H](NC(=O)[C@H](CCCCN)NC(=O)[C@H](CCCCN)NC(=O)[C@H](C)N)C(=O)N[C@@H](CCCCN)C(=O)N[C@@H](CCCNC(=N)N)C(=O)N[C@@H](CCCNC(=N)N)C(=O)N[C@@H](CCCCN)C(=O)N[C@@H](C)C(N)=O` [SEQ ID NO: 137] (H-AKKMKRRKA-NH2): the “activity in competition ELISA” value in data set [2] is recorded as “less active”. In addition, the “activity in cell adhesion inhibition” value on MN/CA IX is reported as “less active”.
With `CC[C@H](C)[C@H](NC(=O)[C@H](C)N)C(=O)N[C@H](C(=O)N[C@@H](Cc1ccccc1)C(=O)N[C@@H](CC(N)=O)C(=O)N[C@@H](C)C(=O)N[C@@H](CCC(N)=O)C(=O)N[C@@H](Cc1ccc(O)cc1)C(=O)N[C@@H](C)C(N)=O)[C@@H](C)O` [SEQ ID NO: 138] (H-AITFNAQYA-NH2), the “activity in competition ELISA” value in data set [2] is on record as “highest activity”. The “activity in cell adhesion inhibition” value at MN/CA IX is given as “highest activity”.
With `CC(C)[C@H](NC(=O)[C@@H]1CCCN1C(=O)[C@H](C)NC(=O)[C@H](CO)NC(=O)[C@H](C)NC(=O)[C@H](CO)NC(=O)[C@H](C)N)C(=O)N[C@@H](CO)C(=O)N[C@@H](C)C(N)=O` [SEQ ID NO: 139] (H-ASASAPVSA-NH2), the “activity in competition ELISA” value in [2] is “marginally positive”. Also, on MN/CA IX, the “activity in cell adhesion inhibition” value is listed as “marginally positive only in ELISA”.
Turning to `CC(C)C[C@H](NC(=O)[C@@H]1CCCN1C(=O)[C@H](CO)NC(=O)[C@H](CCCNC(=N)N)NC(=O)[C@@H](NC(=O)[C@H](CCC(N)=O)NC(=O)CNC(=O)[C@H](C)N)[C@@H](C)O)C(=O)N[C@@H](C)C(N)=O` [SEQ ID NO: 140] (H-AGQTRSPLA-NH2), the “activity in competition ELISA” value in [2] was “inactive”. Also, at MN/CA IX, the “activity in cell adhesion inhibition” value is “inactive”.
On to `CC(=O)Nc1nnc(S(N)(=O)=O)s1` [acetazolamide], for which the cell growth result was “partial inhibition” in the data set on HeLa (10^-4M), “did not inhibit cell growth” in the data set on HeLa (10^-5M), “partial inhibition” in the data set on NIH3T3 cells (10^-4M) and “did not inhibit cell growth” in the data set on NIH3T3 cells (10^-5M). Also, the MNTC at 72 h in data set [3] and in [4] was 10 to 1000 µM throughout. Further, the “difference between transformed cells growing in the presence or absence of the drug” value in data set [5] is “No difference”.
With “EDPPGEEDLPGEEDLPGEEDLPEVC [SEQ ID NO: 106]”, in the data set on MAb M75 (competition ELISA), the “concentration causing 50% inhibition” value came out at 1 ng/mL. Besides, in the data set with MAb M75, the “reactive with the M75 MAb” value is reported as “reactive”.
Consider “GEEDLPSEEDSPREEDPPGEEDLPGEC [SEQ ID NO: 105]”, for which, in the data set with MAb M75 (competition ELISA), the “fold less active (than SEQ ID NOS: 104 and 106)” value is given as 1000 x. The “reactive with the M75 MAb” value in the data set on MAb M75 is “reactive”.
Regarding “GGSSGEDDPLGEEDLPSEEDSPC [SEQ ID NO: 104]”, the “concentration causing 50% inhibition” value in the data set with MAb M75 (competition ELISA) was found to be 1 ng/mL. Moreover, in the data set with MAb M75, the “reactive with the M75 MAb” value is reported as “reactive”.

The record behind these values is patent EP1123387B1, “MN GENE AND PROTEIN” (INSTITUTE OF VIROLOGY, priority 1998, dated 2000).
